Results taken from PubChem BioAssay (NCI).
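Dose response: 5 concentrations. Exposure: 48 h. Format: 96-well plates. Endpoint: linear interpolation; highest concentration if not reached. TGI marks complete inhibition of growth.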

Columns and labels:
Assay in all cases: NCI anticancer screen, dose series, 48 h
LOX IMVI melanoma = tested on: LOX IMVI melanoma
MALME-3M melanoma = tested on: MALME-3M melanoma
DMS 114 small cell lung = tested on: DMS 114 small cell lung
ACHN renal = tested on: ACHN renal
COLO 205 colon = tested on: COLO 205 colon
CAKI-1 renal = tested on: CAKI-1 renal
SF-295 CNS = tested on: SF-295 CNS
UACC-257 melanoma = tested on: UACC-257 melanoma
M19-MEL melanoma = tested on: M19-MEL melanoma
OVCAR-3 ovarian = tested on: OVCAR-3 ovarian
NCI-H23 lung = tested on: NCI-H23 lung
SN12C renal = tested on: SN12C renal
786-0 renal = tested on: 786-0 renal
SK-MEL-5 melanoma = tested on: SK-MEL-5 melanoma
M14 melanoma = tested on: M14 melanoma
UO-31 renal = tested on: UO-31 renal
SF-539 CNS = tested on: SF-539 CNS
UACC-62 melanoma = tested on: UACC-62 melanoma
OVCAR-8 ovarian = tested on: OVCAR-8 ovarian
SNB-19 CNS = tested on: SNB-19 CNS
SR leukemia = tested on: SR leukemia
KM12 colon = tested on: KM12 colon
SF-268 CNS = tested on: SF-268 CNS
HCC-2998 colon = tested on: HCC-2998 colon
HT29 colon = tested on: HT29 colon
EKVX NSCLC = tested on: EKVX NSCLC
HCT-15 colon = tested on: HCT-15 colon
IGROV1 ovarian = tested on: IGROV1 ovarian
TK-10 renal = tested on: TK-10 renal
HCT-116 colon = tested on: HCT-116 colon
SNB-75 CNS = tested on: SNB-75 CNS
RXF-631 renal = tested on: RXF-631 renal
KM20L2 colon = tested on: KM20L2 colon
OVCAR-4 ovarian = tested on: OVCAR-4 ovarian
SW-620 colon = tested on: SW-620 colon
SK-OV-3 ovarian = tested on: SK-OV-3 ovarian
MOLT-4 leukemia = tested on: MOLT-4 leukemia
LXFL 529 NSCLC = tested on: LXFL 529 NSCLC
HOP-62 NSCLC = tested on: HOP-62 NSCLC
HOP-92 NSCLC = tested on: HOP-92 NSCLC
SK-MEL-28 melanoma = tested on: SK-MEL-28 melanoma
A549 NSCLC = tested on: A549 NSCLC
HOP-18 NSCLC = tested on: HOP-18 NSCLC
NCI-H522 lung = tested on: NCI-H522 lung
NCI-H460 lung = tested on: NCI-H460 lung
DMS 273 small cell lung = tested on: DMS 273 small cell lung
CCRF-CEM leukemia = tested on: CCRF-CEM leukemia
HL-60(TB) leukemia = tested on: HL-60(TB) leukemia
RPMI-8226 leukemia = tested on: RPMI-8226 leukemia
K-562 leukemia = tested on: K-562 leukemia
U251 CNS = tested on: U251 CNS
RXF 393 renal = tested on: RXF 393 renal
A498 renal = tested on: A498 renal
SK-MEL-2 melanoma = tested on: SK-MEL-2 melanoma
NCI-H226 lung = tested on: NCI-H226 lung
SNB-78 CNS = tested on: SNB-78 CNS
DLD-1 colon = tested on: DLD-1 colon
OVCAR-5 ovarian = tested on: OVCAR-5 ovarian

SMILES: O=C(Nc1nc(=S)[nH][nH]1)C(=O)C1C(=O)Nc2ccccc2S1=O (stereo unspecified)
- TGI (LOX IMVI melanoma): > 100 µM
- TGI (MALME-3M melanoma): > 100 µM
- TGI (DMS 114 small cell lung): > 100 µM
- TGI (ACHN renal): > 100 µM
- TGI (COLO 205 colon): > 100 µM
- TGI (CAKI-1 renal): > 100 µM
- TGI (SF-295 CNS): > 100 µM
- TGI (UACC-257 melanoma): > 100 µM
- TGI (M19-MEL melanoma): > 100 µM
- TGI (OVCAR-3 ovarian): > 100 µM
- TGI (NCI-H23 lung): > 100 µM
- TGI (SN12C renal): > 100 µM
- TGI (786-0 renal): > 100 µM
- TGI (SK-MEL-5 melanoma): > 100 µM
- TGI (M14 melanoma): > 100 µM
- TGI (UO-31 renal): > 100 µM
- TGI (SF-539 CNS): > 100 µM
- TGI (UACC-62 melanoma): > 100 µM
- TGI (OVCAR-8 ovarian): > 100 µM
- TGI (SNB-19 CNS): > 100 µM
- TGI (SR leukemia): > 100 µM
- TGI (KM12 colon): > 100 µM
- TGI (SF-268 CNS): > 100 µM
- TGI (HCC-2998 colon): > 100 µM
- TGI (HT29 colon): > 100 µM
- TGI (EKVX NSCLC): > 100 µM
- TGI (HCT-15 colon): > 100 µM
- TGI (IGROV1 ovarian): > 100 µM
- TGI (TK-10 renal): > 100 µM
- TGI (HCT-116 colon): > 100 µM
- TGI (SNB-75 CNS): > 100 µM
- TGI (RXF-631 renal): > 100 µM
- TGI (KM20L2 colon): > 100 µM
- TGI (OVCAR-4 ovarian): > 100 µM
- TGI (SW-620 colon): > 100 µM
- TGI (SK-OV-3 ovarian): > 100 µM
- TGI (MOLT-4 leukemia): > 100 µM
- TGI (LXFL 529 NSCLC): > 100 µM
- TGI (HOP-62 NSCLC): > 100 µM
- TGI (HOP-92 NSCLC): > 100 µM
- TGI (SK-MEL-28 melanoma): > 100 µM
- TGI (A549 NSCLC): > 100 µM
- TGI (HOP-18 NSCLC): > 100 µM
- TGI (NCI-H522 lung): > 100 µM
- TGI (NCI-H460 lung): > 100 µM
- TGI (DMS 273 small cell lung): > 100 µM
- TGI (CCRF-CEM leukemia): > 100 µM
- TGI (HL-60(TB) leukemia): > 100 µM

SMILES: COc1ccc(SS(=O)(=O)c2ccc(OC)cc2)cc1
- TGI (LOX IMVI melanoma): 31.8 µM
- TGI (MALME-3M melanoma): 80.4 µM
- TGI (DMS 114 small cell lung): 30.6 µM
- TGI (RPMI-8226 leukemia): 75.4 µM
- TGI (ACHN renal): 33.1 µM
- TGI (COLO 205 colon): 33.2 µM
- TGI (CAKI-1 renal): 43.3 µM
- TGI (K-562 leukemia): 47 µM
- TGI (SF-295 CNS): 39.3 µM
- TGI (U251 CNS): 27.6 µM
- TGI (UACC-257 melanoma): 49.4 µM
- TGI (M19-MEL melanoma): 46.4 µM
- TGI (OVCAR-3 ovarian): 33.8 µM
- TGI (NCI-H23 lung): 49.1 µM
- TGI (SN12C renal): 36.7 µM
- TGI (786-0 renal): 32.7 µM
- TGI (SK-MEL-5 melanoma): 33 µM
- TGI (M14 melanoma): 41.6 µM
- TGI (UO-31 renal): 27.2 µM
- TGI (SF-539 CNS): 34 µM
- TGI (RXF 393 renal): 32.3 µM
- TGI (UACC-62 melanoma): 38.5 µM
- TGI (OVCAR-8 ovarian): 31.9 µM
- TGI (A498 renal): 37 µM
- TGI (SNB-19 CNS): 65 µM
- TGI (SR leukemia): 61.4 µM
- TGI (KM12 colon): 30.7 µM
- TGI (SF-268 CNS): 32.9 µM
- TGI (HCC-2998 colon): 29.8 µM
- TGI (HT29 colon): 64.1 µM
- TGI (EKVX NSCLC): 71.6 µM
- TGI (HCT-15 colon): > 100 µM
- TGI (IGROV1 ovarian): 24.4 µM
- TGI (TK-10 renal): 50.2 µM
- TGI (HCT-116 colon): 30.3 µM
- TGI (SNB-75 CNS): 45.5 µM
- TGI (RXF-631 renal): > 100 µM
- TGI (KM20L2 colon): 38 µM
- TGI (SK-MEL-2 melanoma): 87.5 µM
- TGI (SW-620 colon): 18.1 µM
- TGI (SK-OV-3 ovarian): 69.4 µM
- TGI (MOLT-4 leukemia): 47.8 µM
- TGI (LXFL 529 NSCLC): 34.4 µM
- TGI (HOP-62 NSCLC): 50.9 µM
- TGI (HOP-92 NSCLC): 60.4 µM
- TGI (SK-MEL-28 melanoma): 40.1 µM
- TGI (A549 NSCLC): 69.2 µM
- TGI (NCI-H226 lung): 50.1 µM
- TGI (HOP-18 NSCLC): 48.3 µM
- TGI (SNB-78 CNS): > 100 µM
- TGI (NCI-H522 lung): 29.2 µM
- TGI (DLD-1 colon): 52.3 µM
- TGI (NCI-H460 lung): 83.9 µM
- TGI (CCRF-CEM leukemia): 10.2 µM
- TGI (OVCAR-5 ovarian): 76.4 µM
- TGI (HL-60(TB) leukemia): 7.81 µM

SMILES: COc1cc([C@@H]2c3cc4c(cc3[C@@H](NC(=O)c3cccc(C#N)c3)C3COC(=O)[C@@H]32)OCO4)cc(OC)c1O (stereo partly specified)
- TGI (LOX IMVI melanoma): 10.5 µM
- TGI (MALME-3M melanoma): 5.18 µM
- TGI (RPMI-8226 leukemia): 29.4 µM
- TGI (ACHN renal): 1.98 µM
- TGI (COLO 205 colon): > 100 µM
- TGI (CAKI-1 renal): 16.3 µM
- TGI (K-562 leukemia): > 100 µM
- TGI (U251 CNS): 1.81 µM
- TGI (UACC-257 melanoma): > 100 µM
- TGI (OVCAR-3 ovarian): 8.74 µM
- TGI (NCI-H23 lung): 0.811 µM
- TGI (SN12C renal): 1.81 µM
- TGI (786-0 renal): > 100 µM
- TGI (SK-MEL-5 melanoma): 13.6 µM
- TGI (M14 melanoma): > 100 µM
- TGI (UO-31 renal): 19.2 µM
- TGI (SF-539 CNS): 1.56 µM
- TGI (RXF 393 renal): 45.5 µM
- TGI (UACC-62 melanoma): 2.95 µM
- TGI (OVCAR-8 ovarian): 14.6 µM
- TGI (A498 renal): 4.98 µM
- TGI (SNB-19 CNS): 8.62 µM
- TGI (KM12 colon): 5.21 µM
- TGI (SF-268 CNS): > 100 µM
- TGI (HCC-2998 colon): 6.34 µM
- TGI (HT29 colon): 11.5 µM
- TGI (EKVX NSCLC): 7.49 µM
- TGI (HCT-15 colon): 24.5 µM
- TGI (IGROV1 ovarian): 6.54 µM
- TGI (TK-10 renal): 7.86 µM
- TGI (HCT-116 colon): 12.7 µM
- TGI (SNB-75 CNS): 4.85 µM
- TGI (RXF-631 renal): 14.6 µM
- TGI (KM20L2 colon): 7.53 µM
- TGI (OVCAR-4 ovarian): > 100 µM
- TGI (SK-MEL-2 melanoma): 8.83 µM
- TGI (SW-620 colon): 17.8 µM
- TGI (MOLT-4 leukemia): 33 µM
- TGI (LXFL 529 NSCLC): > 100 µM
- TGI (HOP-92 NSCLC): 9.89 µM
- TGI (SK-MEL-28 melanoma): > 100 µM
- TGI (A549 NSCLC): 2.51 µM
- TGI (NCI-H226 lung): 0.67 µM
- TGI (HOP-18 NSCLC): > 100 µM
- TGI (SNB-78 CNS): > 100 µM
- TGI (NCI-H522 lung): 3.16 µM
- TGI (DLD-1 colon): 16.8 µM
- TGI (NCI-H460 lung): 2.53 µM
- TGI (DMS 273 small cell lung): 13.8 µM
- TGI (CCRF-CEM leukemia): > 100 µM
- TGI (OVCAR-5 ovarian): 25.5 µM
- TGI (HL-60(TB) leukemia): 12.3 µM
